In ChEMBL document CHEMBL5537159, “Discovery and SAR of JTE-151: A Novel RORγ Inhibitor for Clinical Development” (J Med Chem, 2024):

Legend:
[1] = target: T1, Nuclear receptor ROR-gamma (Homo sapiens, UniProt P51449); test: Inhibition of GAL4 DNA-binding domain fused RORgamma (unknown origin) transfected in CHO-K1 cells incubated for 2 days by luciferase assay; format: cell-based
T1 sequence (P51449 whole entry): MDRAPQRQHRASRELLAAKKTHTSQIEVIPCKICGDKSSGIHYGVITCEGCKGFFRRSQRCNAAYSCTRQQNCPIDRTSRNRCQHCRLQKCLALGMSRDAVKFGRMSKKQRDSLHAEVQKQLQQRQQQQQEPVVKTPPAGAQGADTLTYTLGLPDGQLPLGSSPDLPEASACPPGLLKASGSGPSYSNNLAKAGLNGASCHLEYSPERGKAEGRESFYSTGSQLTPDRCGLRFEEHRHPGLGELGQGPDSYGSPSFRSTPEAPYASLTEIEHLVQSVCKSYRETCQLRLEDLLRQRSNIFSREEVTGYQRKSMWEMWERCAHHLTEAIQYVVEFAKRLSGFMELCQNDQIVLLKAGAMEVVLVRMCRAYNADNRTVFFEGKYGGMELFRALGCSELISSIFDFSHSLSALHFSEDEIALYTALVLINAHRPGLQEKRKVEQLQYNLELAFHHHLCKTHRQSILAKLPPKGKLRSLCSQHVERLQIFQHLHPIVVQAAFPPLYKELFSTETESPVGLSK

[2] = Lipophilicity, logD of compound by RP-HPLC analysis; format: physicochemical
[3] = Metabolic stability in human liver microsomes assessed as compound remaining at 5 umol/L measured after 60 mins by UPLC/MS analysis; format: ADME, Microsome; details: dose 5 µmol/L, read-out: Stability
[4] = Apparent permeability in human Caco-2 cells at 25 umol/L incubated for 2 hrs by LC/MS/MS analysis; format: ADME, cell-based; details: dose 25 µmol/L

Row | SMILES | EC50 [1] | logD [2] | remaining at 1 h, 5 µM [3] | Papp at 2 h, 25 µM [4]
1 | Cc1ccc(NC(=O)CC(CC(=O)N(C)C)c2nnc([C@H]3C[C@@H](CC(C)C)C3)n2C2CC2)c(C)c1 (mixture of isomers) | 150 nM | 4.3 | 27% | 18.3 ×10⁻⁶ cm/s
2 | Cc1ccc(NC(=O)C[C@H](Cc2ccc(C(=O)O)cc2)c2noc([C@H]3C[C@@H](CC(C)C)C3)c2C2CC2)c(C)c1 (mixture of isomers) |  | 4.7 | 67% | 14.3 ×10⁻⁶ cm/s
3 | Cc1ccc(NC(=O)CC(Cc2ncco2)c2nnc([C@H]3C[C@@H](CC(C)C)C3)n2C2CC2)c(C)c1 (mixture of isomers) | < 32 nM | 4.5 | 75% | 27 ×10⁻⁶ cm/s
4 | Cc1ccc(NC(=O)C[C@H](Cc2nnn[nH]2)c2noc([C@H]3C[C@@H](CC(C)C)C3)c2C2CC2)c(C)c1 | 63 nM | 4.1 | 0% | 21.8 ×10⁻⁶ cm/s
5 | Cc1ccc(NC(=O)CCc2nnc([C@H]3C[C@@H](CC(C)C)C3)n2C2CC2)c(C)c1 |  | 4.4 | 39% | 
6 | Cc1ccc(NC(=O)C[C@@H](c2noc([C@H]3C[C@@H](CC(C)C)C3)c2C2CC2)C(C)(C)C(=O)O)c(C)c1 | 260 nM | 5 | 77% | 27.6 ×10⁻⁶ cm/s
7 | Cc1ccc(NC(=O)C[C@H](Cc2nc(C(=O)O)cs2)c2noc([C@H]3C[C@@H](CC(C)C)C3)c2C2CC2)c(C)c1 | 110 nM | 4.2 | 71% | 7.5 ×10⁻⁶ cm/s
8 | Cc1ccc(NC(=O)CC(c2nnc([C@H]3C[C@@H](CC(C)C)C3)n2C2CC2)C2CN(C)C2)c(C)c1 (mixture of isomers) | 6900 nM | 3.8 | 78% | 0.7 ×10⁻⁶ cm/s
9 | Cc1ccc(NC(=O)C[C@H](CCC(=O)O)C(=O)N(C[C@H]2C[C@@H](CC(C)(C)C)C2)C2CC2)c(Cl)c1 (mixture of isomers) |  | 4.5 | 73% | 30.6 ×10⁻⁶ cm/s
10 | CC(=O)N1C[C@H](C(=O)Nc2ccc(C)cc2C)[C@@H](c2nnc([C@H]3C[C@@H](CC(C)C)C3)n2C2CC2)C1 |  |  | 61% | 19.8 ×10⁻⁶ cm/s
11 | Cc1ccc(NC(=O)CC(c2nnc([C@H]3C[C@@H](CC(C)C)C3)n2C2CC2)C2CNC2)c(C)c1.Cl (mixture of isomers) | > 20000 nM | 3.7 | 95% | < 0.1 ×10⁻⁶ cm/s
12 | Cc1ccc(NC(=O)CC(Cc2nnn[nH]2)c2nnc([C@H]3C[C@@H](CC(C)C)C3)n2C2CC2)c(C)c1 (mixture of isomers) | 6000 nM | 3.1 | 91% | 0.2 ×10⁻⁶ cm/s
13 | Cc1ccc(NC(=O)C[C@H](CC(=O)O)c2noc([C@H]3C[C@@H](CCC(C)(C)C)C3)c2C2CC2)c(C)c1 |  | 5 | 61% | 22.8 ×10⁻⁶ cm/s
14 | Cc1cc(C)cc(NC(=O)C[C@H](CC(=O)O)c2noc([C@H]3C[C@@H](CC(C)C)C3)c2C2CC2)c1 |  | 4.5 | 52% | 33.7 ×10⁻⁶ cm/s
15 | Cc1ccc(NC(=O)C[C@H](c2nnc([C@H]3C[C@@H](CC(C)C)C3)n2C2CC2)[C@H]2C[C@@H](O)C2)c(C)c1 |  | 4.1 | 0% | 15.2 ×10⁻⁶ cm/s
16 | Cc1cc(C)c(NC(=O)C[C@H](CC(=O)O)c2noc([C@H]3C[C@@H](CC(C)C)C3)c2C2CC2)cc1C |  | 4.6 | 78% | 32 ×10⁻⁶ cm/s
17 | CC(C)C[C@H]1C[C@@H](c2onc([C@@H](CC(=O)O)CC(=O)Nc3ccc(Cl)cc3F)c2C2CC2)C1 | 97 nM | 4.4 | 67% | 29.9 ×10⁻⁶ cm/s
18 | CC(C)C[C@H]1C[C@@H](c2onc([C@@H](CC(=O)O)CC(=O)Nc3ccc(F)cc3Cl)c2C2CC2)C1 |  | 4.3 | 74% | 33.5 ×10⁻⁶ cm/s
19 | Cc1ccc(NC(=O)C[C@H](C[C@H]2C[C@@H](C(=O)O)C2)c2noc([C@H]3C[C@@H](CC(C)C)C3)c2C2CC2)c(C)c1 |  | 5.1 | 69% | 20.9 ×10⁻⁶ cm/s
20 | Cc1ccc(NC(=O)C[C@H](Cc2nccs2)c2nnc([C@H]3C[C@@H](CC(C)C)C3)n2C2CC2)c(C)c1 | < 32 nM | 4.6 | 69% | 29.4 ×10⁻⁶ cm/s
21 | Cc1ccc(NC(=O)CC(CCC(=O)O)c2ncnc([C@H]3C[C@@H](CC(C)(C)C)C3)c2C2CC2)c(Cl)c1 (mixture of isomers) | 16 nM |  | 52% | 20.7 ×10⁻⁶ cm/s
22 | Cc1ccc(NC(=O)C[C@H](CC(=O)O)c2noc([C@H]3C[C@@H](CC(C)C)C3)c2C2CC2)cc1C |  | 4.5 | 65% | 32.4 ×10⁻⁶ cm/s
23 | Cc1ccc(NC(=O)C[C@H](CC(C)(C)O)c2nnc([C@H]3C[C@@H](CC(C)C)C3)n2C2CC2)c(C)c1.Cl | 30 nM | 4.4 | 0% | 25.3 ×10⁻⁶ cm/s
24 | Cc1ccc(NC(=O)C[C@H](CCC(=O)O)n2ncc([C@H]3C[C@@H](CC(C)(C)C)C3)c2C2CC2)c(Cl)c1 |  | 5 | 42% | 14.5 ×10⁻⁶ cm/s
25 | Cc1cccc(C)c1NC(=O)C[C@H](CC(=O)O)c1noc([C@H]2C[C@@H](CC(C)C)C2)c1C1CC1 |  | 4.2 | 85% | 39.6 ×10⁻⁶ cm/s
26 | CCC(C)(C)C[C@H]1C[C@@H](c2onc([C@@H](CC(=O)O)CC(=O)Nc3ccc(C)cc3C)c2C2CC2)C1 |  | 5 | 65% | 22.5 ×10⁻⁶ cm/s

The next lines start with the values.

Row | EC50 [1] | logD [2] | remaining at 1 h, 5 µM [3] | Papp at 2 h, 25 µM [4] | SMILES
27 |  | 4.4 | 76% | 21.8 ×10⁻⁶ cm/s | Cc1ccc(NC(=O)C[C@H](CC(=O)O)c2noc([C@H]3C[C@@H](CC(C)C)C3)c2C2CC2)c(C)c1C
28 | 1200 nM | 4.3 | 54% | 27.6 ×10⁻⁶ cm/s | C=C(C)c1c([C@@H](CC(=O)O)CC(=O)Nc2ccc(C)cc2C)noc1[C@H]1C[C@@H](CC(C)C)C1
29 |  | 4.3 | 78% | 40.6 ×10⁻⁶ cm/s | Cc1ccc(NC(=O)C[C@H](CC(=O)O)c2noc([C@H]3C[C@@H](CC(C)C)C3)c2C2CC2)c(C)c1
30 | 64 nM | 3.9 | 82% | 38 ×10⁻⁶ cm/s | Cc1cc(F)ccc1NC(=O)C[C@H](CC(=O)O)c1noc([C@H]2C[C@@H](CC(C)C)C2)c1C1CC1
31 |  | 4.2 | 67% | 33.1 ×10⁻⁶ cm/s | Cc1ccc(NC(=O)C[C@H](CC(=O)O)c2noc([C@H]3C[C@@H](CC(C)C)C3)c2C2CC2)c(F)c1
32 | 43 nM | 4.4 | 67% | 27.4 ×10⁻⁶ cm/s | Cc1ccc(NC(=O)C[C@H](CC(=O)O)c2noc([C@H]3C[C@@H](CC(C)C)C3)c2C2CC2)c(Cl)c1
33 | 65 nM | 4.2 | 76% | 35.5 ×10⁻⁶ cm/s | Cc1ccc(C)c(NC(=O)C[C@H](CC(=O)O)c2noc([C@H]3C[C@@H](CC(C)C)C3)c2C2CC2)c1
34 |  | 4.2 | 68% | 37.9 ×10⁻⁶ cm/s | CCc1c([C@@H](CC(=O)O)CC(=O)Nc2ccc(C)cc2C)noc1[C@H]1C[C@@H](CC(C)C)C1
35 |  | 5.2 | 53% | 27.7 ×10⁻⁶ cm/s | Cc1ccc(NC(=O)C[C@@H](c2noc([C@H]3C[C@@H](CC(C)C)C3)c2C2CC2)C(C)(C)CC(=O)O)c(C)c1
36 |  | 3.8 | 64% | 24.9 ×10⁻⁶ cm/s | Cc1ccc(NC(=O)C[C@H](OCC(=O)O)c2noc([C@H]3C[C@@H](CC(C)C)C3)c2C2CC2)c(C)c1
37 |  | 4.3 | 67% | 35.5 ×10⁻⁶ cm/s | Cc1cccc(NC(=O)C[C@H](CC(=O)O)c2noc([C@H]3C[C@@H](CC(C)C)C3)c2C2CC2)c1C
38 |  | 4.7 | 90% | 21.5 ×10⁻⁶ cm/s | Cc1ccc(NC(=O)C[C@H](CC(=O)O)c2noc([C@H]3C[C@@H](CCC(C)C)C3)c2C2CC2)c(C)c1
39 | 63 nM | 4.5 | 64% | 17 ×10⁻⁶ cm/s | Cc1cc(C)c(C)c(NC(=O)C[C@H](CC(=O)O)c2noc([C@H]3C[C@@H](CC(C)C)C3)c2C2CC2)c1
40 | 29 nM | 4.5 | 82% | 24.6 ×10⁻⁶ cm/s | Cc1ccc(NC(=O)C[C@H](CC(=O)O)c2noc([C@H]3C[C@@H](CC(C)(C)C)C3)c2C2CC2)c(C)c1 (mixture of isomers)
41 |  | 4.7 | 61% | 31.4 ×10⁻⁶ cm/s | Cc1ccc(NC(=O)C[C@H](CCC(=O)O)c2noc([C@H]3C[C@@H](CC(C)C)C3)c2C2CC2)c(C)c1
42 |  | 4.9 | 88% | 13.6 ×10⁻⁶ cm/s | CCC(CC)C[C@H]1C[C@@H](c2onc([C@@H](CC(=O)O)CC(=O)Nc3ccc(C)cc3C)c2C2CC2)C1
43 |  | 4.7 | 60% | 23.6 ×10⁻⁶ cm/s | Cc1ccc(NC(=O)C[C@H](CC(=O)O)c2noc([C@H]3C[C@@H](C(C)(C)C(C)C)C3)c2C2CC2)c(C)c1
